A value given as a limit tells only on which side of the number the result lay.

These results are taken from US20260015341A1, “PI3K INHIBITOR, PREPARATION METHOD THEREFOR, AND USE THEREOF” (HINOVA PHARMACEUTICALS INC., priority 2022, published 2026).

Assay [1] has as its system MCF-10A cells. Nature of the assay: Inhibitory effects on the proliferation of MCF-10A cells (CCK8). The format is cell-based. Conditions: 6 days. As to the method: Experimental Example 2: Experiment of Inhibitory Effects on the Proliferation of MCF-10A Cells
MCF-10A cells (Cobioer Bio. #CBP60419MCF) were diluted with complete medium (Cobioer Bio. #CBP60419), seeded in 96-well plate (Corning #3599) at 500 cells/well, and then cultured for 24 h. Then, gradiently diluted compounds were added (starting at a final concentration of 10 μM, 3-fold dilution, 9 dose concentrations), and the final volume was adjusted to 100 μL/well. The plate was incubated at 37° C. under 5% CO2 for 6 days. After the cultivation was completed, CCK8 reagent (Signalway Antibody Bio. #CP002) was added at 10 μL/well, and then the plate was further incubated at 37° C. under 5% CO2 for 2-3 hours. The OD450 nm value was obtained by a microplate reader.
The results are shown in the MCF-OA IC50 column in Table 2.

Assay [2] has as its system T47D cells. Nature of the assay: Inhibitory effects on the proliferation of T47D cells (CellTiter-Glo). It is filed as cell-based. Conditions: 7 days. As to the method:
Experimental Example 3: Experiment of Inhibitory Effects on the Proliferation of T47D Cells
T47D cells (ATCC. #HTB-133) were diluted with RPMI 1640 (Gibco #22400-089) containing 10% FBS (Hyclone #SH30084.03), seeded in 96-well plate (Biosharp #BS-MP-96W) at 1000 cells/well, and then cultured for 24 h. Then, gradiently diluted compounds were added (starting at a final concentration of 10 μM, 3-fold dilution, 9 dose concentrations), and the final volume was adjusted to 150 μL/well. The plate was incubated at 37° C. under […] for 7 days. After the cultivation was completed, CellTiter-Glo reagent (Promega #G7573) was added at 75 μL/well, and then the plate was further incubated at 25° C. for 10 min. After that, the chemiluminescence value was read using an instrument.
The results are shown in the T47D IC50 column in Table 2.
For orientation: ATP-based viability assays read luminescence as a measure of living cells.

The term IC50 denotes the concentration at which inhibition is half-maximal. Read a high IC50 as weaker potency in that assay. Molecule `COc1ccc(-c2nc3c([C@@H](C)Nc4ccc(Cl)nc4C(N)=O)cc(C)cc3c(=O)n2C)cc1` [Compound 112] showed an IC50 in assay [1] (Homo sapiens, 144 h) of 1 to 5 µM. Take `Cc1cc([C@@H](C)Nc2ccc(Cl)nc2C(N)=O)c2nc(-c3ccncc3)n(C)c(=O)c2c1` [Compound 110]: the IC50 is under 1 µM in assay [2] (Homo sapiens, 168 h) and over 5 µM in assay [1] (Homo sapiens, 144 h). The matching figures for `Cc1cc(C(C)N2CCc3ccccc32)c2oc(-c3ccc(F)cc3F)cc(=O)c2c1` (centres unmarked) [Compound 116, 2-(2,4-difluorophenyl)-8-(1-(indolin-1-yl)ethyl)-6-methyl-4H-benzopyran-4-one]: over 5 µM and over 5 µM. The like results for `Cc1cc([C@@H](C)Nc2ccccc2C(O)C(F)(F)F)c2oc(-c3ccc(F)cc3)cc(=O)c2c1` (single isomer, unassigned) [Compound 67] were, in that order, 1 to 5 µM and over 5 µM. Take `C[C@@H](Nc1ccc(Cl)nc1C(=O)O)c1cc(Cl)cc2c(=O)n(C)c(-c3ccc(F)cn3)nc12` [Compound 83]: the IC50 was under 1 µM in assay [2] (Homo sapiens, 168 h) and over 5 µM in assay [1] (Homo sapiens, 144 h). For the molecule `Cc1cc([C@@H](C)Nc2ccccc2C(N)=O)c2oc(-c3ccc(F)cc3F)cc(=O)c2c1` [Compound 47], the IC50 in assay [2] (Homo sapiens, 168 h) was under 1 µM; in assay [1] (Homo sapiens, 144 h), over 5 µM. The matching figures for `COc1ccc(-c2nc3c(C(C)N)cc(C)cc3c(=O)n2C)cc1` (centres unmarked) [Compound 107]: under 1 µM and over 5 µM. Regarding `[2H]C([2H])([2H])n1c(-c2ccc(C(F)(F)F)nc2)nc2c([C@@H](C)Nc3ccc(Cl)nc3C(=O)O)cc(C)cc2c1=O` [Compound 94], the IC50 in assay [2] (Homo sapiens, 168 h) is under 1 µM; in assay [1] (Homo sapiens, 144 h), over 5 µM. `COC(=O)c1nc(Cl)ccc1N[C@H](C)c1cc(C)cc2c(=O)nc(-c3ccc(C(F)(F)F)nc3)n(C)c12` [Compound 113] came in with an IC50 in assay [1] (Homo sapiens, 144 h) of over 5 µM. As to `Cc1cc([C@@H](C)Nc2ccccc2C(=O)OC(C)(C)C)c2nc(-c3c(C)noc3C)n(C)c(=O)c2c1` [Compound 49], the IC50 in assay [2] (Homo sapiens, 168 h) is 1 to 5 µM; in assay [1] (Homo sapiens, 144 h), over 5 µM. The like results for `C[C@@H](Nc1c(C(=O)O)cnn1C)c1cc(Cl)cc2c(=O)n(C)c(-c3ccc(F)cn3)nc12` [Compound 86] were, in that order, over 5 µM and over 5 µM. The like results for `C[C@@H](Nc1ccc(Cl)nc1C(=O)O)c1cc(Cl)cc2c(=O)n(C)c(-c3ncccn3)nc12` [Compound 98] were, in that order, under 1 µM and over 5 µM.

On to `[2H]C([2H])([2H])n1c(-c2ccc(F)cn2)nc2c([C@@H](C)Nc3ccc(Cl)cc3C(=O)O)cc(F)cc2c1=O` [Compound 88, (R)-5-chloro-2-((1-(6-fluoro-2-(5-fluoropyridin-2-yl)-3-deuteromethyl-4-oxo-3,4-dihydroquinazolin-8-yl)ethyl)amino)benzoic Acid], for which the half-maximal inhibitory concentration (IC50) is over 5 µM in assay [2] (Homo sapiens, 168 h) and over 5 µM in assay [1] (Homo sapiens, 144 h).

For the molecule `Cc1cc([C@@H](C)Nc2ccc(Cl)nc2C(=O)O)c2nc(-c3ccncc3)n(C)c(=O)c2c1` [Compound 109, (R)-6-chloro-3-((1-(3,6-dimethyl-4-oxo-2-(pyridin-4-yl)-3,4-dihydroquinazolin-8-yl)ethyl)amino)pyridinecarboxylic Acid], the half-maximal inhibitory concentration (IC50) in assay [2] (Homo sapiens, 168 h) was under 1 µM; in assay [1] (Homo sapiens, 144 h), over 5 µM.

Consider `C[C@@H](Nc1ccccc1C(=O)O)c1cc(F)cc2c(=O)n(C)c(-c3ccc(F)cn3)nc12` [Compound 76], for which the IC50 in assay [2] (Homo sapiens, 168 h) was 1 to 5 µM; in assay [1] (Homo sapiens, 144 h), over 5 µM. The matching figures for `COC(=O)c1nc(Cl)ccc1NC(C)c1cc(C)cc2c(=O)n(C)c(-c3ccc(OC)cc3)nc12` (centres unmarked) [Compound 106]: under 1 µM and over 5 µM. On to `CCSc1nc2c([C@@H](C)Nc3ccc(Cl)nc3C(=O)OC)cc(F)cc2c(=O)n1C` [Compound 105], for which the IC50 is 1 to 5 µM in assay [2] (Homo sapiens, 168 h) and over 5 µM in assay [1] (Homo sapiens, 144 h).

Regarding `C[C@@H](Nc1cccc(F)c1C(=O)O)c1cc(F)cc2c(=O)n(C)c(-c3ccccc3)nc12` [Compound 79], the IC50 in assay [2] (Homo sapiens, 168 h) was 1 to 5 µM; in assay [1] (Homo sapiens, 144 h), over 5 µM. The like results for `C[C@@H](Nc1sccc1C(=O)O)c1cc(F)cc2c(=O)n(C)c(-c3ccc(F)cn3)nc12` [Compound 84] were, in that order, over 5 µM and over 5 µM.

With `C[C@@H](Nc1cc(F)ccc1C(=O)O)c1cc(F)cc2c(=O)n(C)c(-c3ccc(F)cn3)nc12` [Compound 81], the IC50 in assay [2] (Homo sapiens, 168 h) is over 5 µM; in assay [1] (Homo sapiens, 144 h), over 5 µM. `[2H]C([2H])([2H])n1c(-c2cccc(F)c2)nc2c([C@@H](C)Nc3ccc(Cl)nc3C(=O)O)cc(C)cc2c1=O` [Compound 93]: the IC50 in assay [2] (Homo sapiens, 168 h) was under 1 µM; in assay [1] (Homo sapiens, 144 h), over 5 µM. The like results for `Cc1cc([C@@H](C)Nc2ccc(F)cc2C(=O)O)c2nc(-c3ccc(F)cn3)n(C)c(=O)c2c1` [Compound 87] were, in that order, under 1 µM and over 5 µM.

`COC(=O)c1nc(Cl)ccc1N[C@@H](C)c1cc(C)cc2c(=O)nc(-c3ccc(C(F)(F)F)nc3)n(C)c12` [Compound 114] returned an IC50 in assay [1] (Homo sapiens, 144 h) of over 5 µM. For the molecule `C[C@@H](Nc1ccc(Cl)nc1C(=O)O)c1cc(Cl)cc2c(=O)n(C)c(-c3ncc(Cl)cn3)nc12` [Compound 97], the IC50 was under 1 µM in assay [2] (Homo sapiens, 168 h) and 1 to 5 µM in assay [1] (Homo sapiens, 144 h). Turning to `Cc1cc([C@@H](C)Nc2ccccc2C(=NO)C(F)(F)F)c2oc(-c3ccc(F)cc3F)cc(=O)c2c1` (stereo in doubt) [Compound 64, (R,E)-2-(2,4-difluorophenyl)-6-methyl-8-(1-((2-(2,2,2-trifluoro-1-(hydroxyimino)ethyl)phenyl)amino)ethyl)-4H-chromen-4-one], the IC50 in assay [2] (Homo sapiens, 168 h) was 1 to 5 µM; in assay [1] (Homo sapiens, 144 h), over 5 µM. The like results for `[2H]C([2H])([2H])n1c(-c2ccc(F)cn2)nc2c([C@@H](C)Nc3ccc(F)cc3C(=O)O)cc(F)cc2c1=O` [Compound 91] were, in that order, under 1 µM and over 5 µM. For `[2H]C([2H])([2H])n1c(-c2cccc(F)c2)nc2c([C@@H](C)Nc3ccc(Cl)nc3C(=O)O)cc(F)cc2c1=O` [Compound 89], the IC50 in assay [2] (Homo sapiens, 168 h) is 1 to 5 µM; in assay [1] (Homo sapiens, 144 h) it was over 5 µM.

With `Cc1cc([C@@H](C)Nc2ccccc2C(=O)O)c2nc(-c3c(C)noc3C)n(C)c(=O)c2c1` [Compound 51], the IC50 was over 5 µM in assay [2] (Homo sapiens, 168 h) and over 5 µM in assay [1] (Homo sapiens, 144 h). `Cc1cc([C@@H](C)Nc2cc(F)ccc2C(=O)O)c2nc(-c3ccc(F)cn3)n(C)c(=O)c2c1` [Compound 78]: the IC50 was 1 to 5 µM in assay [2] (Homo sapiens, 168 h) and over 5 µM in assay [1] (Homo sapiens, 144 h). The like results for `Cc1cc([C@@H](C)Nc2ccc(Cl)cc2C(=O)O)c2nc(-c3ccc(F)cn3)n(C)c(=O)c2c1` [Compound 90] were, in that order, under 1 µM and over 5 µM. `COc1ccc(-c2nc3c([C@@H](C)Nc4ccc(Cl)nc4C(=O)O)cc(C)cc3c(=O)n2C)cc1` [Compound 111]: the IC50 in assay [1] (Homo sapiens, 144 h) was over 5 µM. On to `Cc1cc([C@@H](C)Nc2ccccc2C(O)C(F)(F)F)c2oc(-c3ccc(F)cc3)cc(=O)c2c1` (single isomer, unassigned) [Compound 68], for which the IC50 in assay [2] is 1 to 5 µM; in assay [1] it was over 5 µM. `Cc1cc([C@@H](C)N[S@+]([O-])C(C)(C)C)c2nc(-c3ccncc3)n(C)c(=O)c2c1` [Compound 108]: the IC50 in assay [2] (Homo sapiens, 168 h) is over 5 µM; in assay [1] (Homo sapiens, 144 h), over 5 µM.

As for `COC(=O)c1occc1N[C@H](C)c1cc(C)cc2c(=O)cc(-c3ccc(F)cc3F)oc12` [Compound 63, methyl (R)-3-((1-(2-(2,4-difluorophenyl)-6-methyl-4-oxo-4H-chromen-8-yl)ethyl)amino)furan-2-carboxylate], the IC50 is 1 to 5 µM in assay [2] (Homo sapiens, 168 h) and over 5 µM in assay [1] (Homo sapiens, 144 h).

For `Cc1cc([C@@H](C)Nc2ccc(Cl)nc2C(=O)OC(C)(C)C)c2nc(-c3c(C)noc3C)n(C)c(=O)c2c1` [Compound 50], the IC50 in assay [2] (Homo sapiens, 168 h) was 1 to 5 µM; in assay [1] (Homo sapiens, 144 h) it was over 5 µM. The like results for `Cc1cc([C@@H](C)Nc2ccc(Cl)nc2C(=O)O)c2nc(-c3ccc(C(F)(F)F)cn3)n(C)c(=O)c2c1` [Compound 75] were, in that order, 1 to 5 µM and over 5 µM.
